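Briefly, cells in 96-well plates were exposed to five compound concentrations for 48 h, and endpoints were estimated by linear interpolation. The concentration for 50% growth inhibition is given as GI50. The concentration for full growth arrest is given as TGI.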
What was measured:
Experiment in all cases: DTP human tumour cell line panel, 48 h
A498 renal = system: A498 renal
A549 NSCLC = system: A549 NSCLC
ACHN renal = system: ACHN renal
CCRF-CEM leukemia = system: CCRF-CEM leukemia
EKVX NSCLC = system: EKVX NSCLC
HCT-116 colon = system: HCT-116 colon
HCT-15 colon = system: HCT-15 colon
HOP-62 NSCLC = system: HOP-62 NSCLC
HOP-92 NSCLC = system: HOP-92 NSCLC
HT29 colon = system: HT29 colon
IGROV1 ovarian = system: IGROV1 ovarian
K-562 leukemia = system: K-562 leukemia
KM12 colon = system: KM12 colon
LOX IMVI melanoma = system: LOX IMVI melanoma
M14 melanoma = system: M14 melanoma
MCF7 breast = system: MCF7 breast
MDA-MB-231 breast = system: MDA-MB-231 breast
MOLT-4 leukemia = system: MOLT-4 leukemia
NCI-H226 lung = system: NCI-H226 lung
NCI-H23 lung = system: NCI-H23 lung
OVCAR-3 ovarian = system: OVCAR-3 ovarian
OVCAR-8 ovarian = system: OVCAR-8 ovarian
RPMI-8226 leukemia = system: RPMI-8226 leukemia
SF-268 CNS = system: SF-268 CNS
SF-539 CNS = system: SF-539 CNS
SK-MEL-2 melanoma = system: SK-MEL-2 melanoma
SK-MEL-28 melanoma = system: SK-MEL-28 melanoma
SK-OV-3 ovarian = system: SK-OV-3 ovarian
SNB-75 CNS = system: SNB-75 CNS
SR leukemia = system: SR leukemia
TK-10 renal = system: TK-10 renal
UACC-62 melanoma = system: UACC-62 melanoma
786-0 renal = system: 786-0 renal
BT-549 breast = system: BT-549 breast
CAKI-1 renal = system: CAKI-1 renal
COLO 205 colon = system: COLO 205 colon
DU-145 prostate = system: DU-145 prostate
HCC-2998 colon = system: HCC-2998 colon
HL-60(TB) leukemia = system: HL-60(TB) leukemia
HS 578T breast = system: HS 578T breast
MALME-3M melanoma = system: MALME-3M melanoma
MDA-MB-435 = system: MDA-MB-435
NCI-H460 lung = system: NCI-H460 lung
NCI-H522 lung = system: NCI-H522 lung
NCI/ADR-RES ovarian = system: NCI/ADR-RES ovarian
OVCAR-4 ovarian = system: OVCAR-4 ovarian
OVCAR-5 ovarian = system: OVCAR-5 ovarian
PC-3 prostate = system: PC-3 prostate
RXF 393 renal = system: RXF 393 renal
SF-295 CNS = system: SF-295 CNS
SK-MEL-5 melanoma = system: SK-MEL-5 melanoma
SN12C renal = system: SN12C renal
SNB-19 CNS = system: SNB-19 CNS
SW-620 colon = system: SW-620 colon
T-47D breast = system: T-47D breast
U251 CNS = system: U251 CNS
UACC-257 melanoma = system: UACC-257 melanoma
UO-31 renal = system: UO-31 renal

N#C/C(=C\c1ccc(Br)cc1)n1nnc2cc(Cl)c(Cl)cc21
GI50 (A498 renal): 1.78 µM
TGI (A498 renal): 4.51 µM
GI50 (A549 NSCLC): 3.1 µM
TGI (A549 NSCLC): > 100 µM
GI50 (ACHN renal): 1.73 µM
TGI (ACHN renal): 3.24 µM
GI50 (CCRF-CEM leukemia): 1.71 µM
TGI (CCRF-CEM leukemia): > 100 µM
GI50 (EKVX NSCLC): 2.83 µM
TGI (EKVX NSCLC): > 100 µM
GI50 (HCT-116 colon): 1.43 µM
TGI (HCT-116 colon): 3.08 µM
GI50 (HCT-15 colon): 1.67 µM
TGI (HCT-15 colon): 5.17 µM
GI50 (HOP-62 NSCLC): 3.26 µM
TGI (HOP-62 NSCLC): > 100 µM
GI50 (HOP-92 NSCLC): 1.14 µM
TGI (HOP-92 NSCLC): 3.79 µM
GI50 (HT29 colon): 2.18 µM
TGI (HT29 colon): 5.18 µM
GI50 (IGROV1 ovarian): 2 µM
TGI (IGROV1 ovarian): 4.53 µM
GI50 (K-562 leukemia): 2.31 µM
TGI (K-562 leukemia): > 100 µM
GI50 (KM12 colon): 2.92 µM
TGI (KM12 colon): > 100 µM
GI50 (LOX IMVI melanoma): 1.71 µM
TGI (LOX IMVI melanoma): 3.3 µM
GI50 (M14 melanoma): 1.92 µM
TGI (M14 melanoma): 5.03 µM
GI50 (MCF7 breast): 1.51 µM
TGI (MCF7 breast): > 100 µM
GI50 (MDA-MB-231 breast): 2.31 µM
TGI (MDA-MB-231 breast): 8 µM
GI50 (MOLT-4 leukemia): 2.51 µM
TGI (MOLT-4 leukemia): > 100 µM
GI50 (NCI-H226 lung): 3.59 µM
TGI (NCI-H226 lung): > 100 µM
GI50 (NCI-H23 lung): 2.89 µM
TGI (NCI-H23 lung): > 100 µM
GI50 (OVCAR-3 ovarian): 2.1 µM
TGI (OVCAR-3 ovarian): 5.29 µM
GI50 (OVCAR-8 ovarian): 2.17 µM
TGI (OVCAR-8 ovarian): > 100 µM
GI50 (RPMI-8226 leukemia): 1.42 µM
TGI (RPMI-8226 leukemia): 4.38 µM
GI50 (SF-268 CNS): 3.84 µM
TGI (SF-268 CNS): > 100 µM
GI50 (SF-539 CNS): 2.2 µM
TGI (SF-539 CNS): 4.86 µM
GI50 (SK-MEL-2 melanoma): 2.08 µM
TGI (SK-MEL-2 melanoma): 4.86 µM
GI50 (SK-MEL-28 melanoma): 1.84 µM
TGI (SK-MEL-28 melanoma): 3.81 µM
GI50 (SK-OV-3 ovarian): 4.33 µM
TGI (SK-OV-3 ovarian): > 100 µM
GI50 (SNB-75 CNS): 1.73 µM
TGI (SNB-75 CNS): 8.26 µM
GI50 (SR leukemia): 1.36 µM
TGI (SR leukemia): > 100 µM
GI50 (TK-10 renal): 3.32 µM
TGI (TK-10 renal): 6.71 µM
GI50 (UACC-62 melanoma): 1.68 µM
TGI (UACC-62 melanoma): 3.63 µM

N#Cc1c(N)nc(N2CCOCC2)c(C#N)c1-c1ccccn1
GI50 (786-0 renal): > 100 µM
TGI (786-0 renal): > 100 µM
GI50 (A498 renal): > 100 µM
TGI (A498 renal): > 100 µM
GI50 (A549 NSCLC): > 100 µM
TGI (A549 NSCLC): > 100 µM
GI50 (ACHN renal): > 100 µM
TGI (ACHN renal): > 100 µM
GI50 (BT-549 breast): > 100 µM
TGI (BT-549 breast): > 100 µM
GI50 (CAKI-1 renal): > 100 µM
TGI (CAKI-1 renal): > 100 µM
GI50 (CCRF-CEM leukemia): > 100 µM
TGI (CCRF-CEM leukemia): > 100 µM
GI50 (COLO 205 colon): > 100 µM
TGI (COLO 205 colon): > 100 µM
GI50 (DU-145 prostate): > 100 µM
TGI (DU-145 prostate): > 100 µM
GI50 (EKVX NSCLC): > 100 µM
TGI (EKVX NSCLC): > 100 µM
GI50 (HCC-2998 colon): > 82 µM
TGI (HCC-2998 colon): > 100 µM
GI50 (HCT-116 colon): > 100 µM
TGI (HCT-116 colon): > 100 µM
GI50 (HCT-15 colon): > 100 µM
TGI (HCT-15 colon): > 100 µM
GI50 (HL-60(TB) leukemia): > 100 µM
TGI (HL-60(TB) leukemia): > 100 µM
GI50 (HOP-62 NSCLC): > 100 µM
TGI (HOP-62 NSCLC): > 100 µM
GI50 (HOP-92 NSCLC): > 52.8 µM
TGI (HOP-92 NSCLC): > 100 µM
GI50 (HS 578T breast): > 100 µM
TGI (HS 578T breast): > 100 µM
GI50 (HT29 colon): > 100 µM
TGI (HT29 colon): > 100 µM
GI50 (IGROV1 ovarian): > 52.3 µM
TGI (IGROV1 ovarian): > 100 µM
GI50 (K-562 leukemia): > 100 µM
TGI (K-562 leukemia): > 100 µM
GI50 (KM12 colon): > 100 µM
TGI (KM12 colon): > 100 µM
GI50 (LOX IMVI melanoma): > 100 µM
TGI (LOX IMVI melanoma): > 100 µM
GI50 (M14 melanoma): > 100 µM
TGI (M14 melanoma): > 100 µM
GI50 (MALME-3M melanoma): > 100 µM
TGI (MALME-3M melanoma): > 100 µM
GI50 (MCF7 breast): > 100 µM
TGI (MCF7 breast): > 100 µM
GI50 (MDA-MB-435): > 100 µM
TGI (MDA-MB-435): > 100 µM
GI50 (MOLT-4 leukemia): > 100 µM
TGI (MOLT-4 leukemia): > 100 µM
TGI (NCI-H226 lung): > 100 µM
GI50 (NCI-H23 lung): > 100 µM
TGI (NCI-H23 lung): > 100 µM
GI50 (NCI-H460 lung): > 100 µM
TGI (NCI-H460 lung): > 100 µM
GI50 (NCI-H522 lung): > 100 µM
TGI (NCI-H522 lung): > 100 µM
GI50 (NCI/ADR-RES ovarian): > 100 µM
TGI (NCI/ADR-RES ovarian): > 100 µM
GI50 (OVCAR-3 ovarian): > 100 µM
TGI (OVCAR-3 ovarian): > 100 µM
GI50 (OVCAR-4 ovarian): > 100 µM
TGI (OVCAR-4 ovarian): > 100 µM
GI50 (OVCAR-5 ovarian): > 100 µM
TGI (OVCAR-5 ovarian): > 100 µM
GI50 (OVCAR-8 ovarian): > 100 µM
TGI (OVCAR-8 ovarian): > 100 µM
GI50 (PC-3 prostate): > 100 µM
TGI (PC-3 prostate): > 100 µM
GI50 (RPMI-8226 leukemia): > 50.3 µM
TGI (RPMI-8226 leukemia): > 100 µM
GI50 (RXF 393 renal): > 100 µM
TGI (RXF 393 renal): > 100 µM
GI50 (SF-268 CNS): > 100 µM
TGI (SF-268 CNS): > 100 µM
GI50 (SF-295 CNS): > 100 µM
TGI (SF-295 CNS): > 100 µM
GI50 (SF-539 CNS): > 100 µM
TGI (SF-539 CNS): > 100 µM
GI50 (SK-MEL-2 melanoma): > 100 µM
TGI (SK-MEL-2 melanoma): > 100 µM
GI50 (SK-MEL-28 melanoma): > 100 µM
TGI (SK-MEL-28 melanoma): > 100 µM
GI50 (SK-MEL-5 melanoma): > 100 µM
TGI (SK-MEL-5 melanoma): > 100 µM
GI50 (SK-OV-3 ovarian): > 85.9 µM
TGI (SK-OV-3 ovarian): > 100 µM
GI50 (SN12C renal): > 100 µM
TGI (SN12C renal): > 100 µM
GI50 (SNB-19 CNS): > 100 µM
TGI (SNB-19 CNS): > 100 µM
GI50 (SNB-75 CNS): > 88.5 µM
TGI (SNB-75 CNS): > 100 µM
GI50 (SW-620 colon): > 100 µM
TGI (SW-620 colon): > 100 µM
GI50 (T-47D breast): 48.4 µM
TGI (T-47D breast): > 100 µM
GI50 (TK-10 renal): > 100 µM
TGI (TK-10 renal): > 100 µM
GI50 (U251 CNS): > 100 µM
TGI (U251 CNS): > 100 µM
GI50 (UACC-257 melanoma): > 100 µM
TGI (UACC-257 melanoma): > 100 µM
GI50 (UACC-62 melanoma): 0.0342 µM
TGI (UACC-62 melanoma): 0.482 µM
GI50 (UO-31 renal): > 100 µM
TGI (UO-31 renal): > 100 µM

Reference: PubChem BioAssay (NCI)
